Laboratory results from US20150126369A1, “SYNERGISTIC HERBICIDAL COMPOSITION” (ROTAM AGROCHEM INTERNATIONAL COMPANY LIMITED, priority 2013, published 2015).

Legend:
Format in all cases: in vivo
Datura = test: Field test, postemergence herbicidal activity against Datura in sulfonylurea-resistant rape; conditions: four weeks after the treatment; for pest or weed control at 5 g/ha: Datura, post-emergence, 672 h, read-out: Injury of Datura % Experimental value
Source text: (§1) A synergistic effect exists when the effect of the composition exceeds the sum of the effects of the compounds applied separately.
(§2) If the actually observed activity (O) is greater than the expected activity (E), then the composition is superadditive, i.e., synergism is present.
(§3) Sulfonylurea herbicides-resistant non-genetically modified rape crops were planted with typical weeds under natural outdoors conditions. When the rape plants grew, the weed populations naturally occurred. The weeds were treated during postemergence at 2-4 leaf stage.

Setaria = test: Field test, postemergence herbicidal activity on Setaria in sulfonylurea-resistant rape; conditions: four weeks after the treatment; for pest or weed control at 1 g/ha: Setaria, post-emergence, 672 h, read-out: Injury of Setaria % Experimental value
Source text: as §1, §2, §3

Galium = test: Field test, postemergence herbicidal activity on Galium in sulfonylurea-resistant rape; conditions: four weeks after the treatment; for pest or weed control at 0.1 g/ha: Galium, post-emergence, 672 h, read-out: Injury of Galium % Experimental value
Source text: as §1, §2, §3

Alopecurus = test: Field test, postemergence herbicidal activity on Alopecurus in sulfonylurea-resistant rape; conditions: four weeks after the treatment; for pest or weed control at 10 g/ha: Alopecurus, post-emergence, 672 h, read-out: Injury of Alopecurus % Experimental value
Source text: as §1, §2, §3

Stellaria = test: Field test, postemergence herbicidal activity on Stellaria in sulfonylurea-resistant rape; conditions: 10 gram ai/ha, four weeks after the treatment; for pest or weed control at 10 g/ha: Stellaria, post-emergence, 672 h, read-out: Injury of Stellaria % Experimental value
Source text: as §1, §2, §3

Chenopodium = test: Field test, postemergence herbicidal activity on Chenopodium in sulfonylurea-resistant rape
Source text: (§4) A synergistic effect exists when the effect of the composition exceeds the sum of the effects of the compounds applied separately. The expected effect for a specific combination of two active compounds can be calculated using a so-called “Colby formula” (see S. R. Colby, “Calculating Synergistic and Antagonistic Responses of Herbicide Combinations”, Weeds 1967,15, 20-22) as follows: if
as §2
as §3, with “stage. To reflect the synergistic effect, they were treated with a lower dosage than the common dosage.” for “stage.”

Beckmannia = test: Field test, postemergence herbicidal activity on Beckmannia in sulfonylurea-resistant rape
Source text: as §4, §2
as §3, with “stage. To reflect the synergistic effect, they were treated with a lower dosage than the common dosage.” for “stage.”

[1] = sulfonylurea alone, 5 gram ai/ha
[2] = sulfonylurea alone, 1 gram ai/ha
[3] = sulfonylurea alone, 0.1 gram ai/ha
[4] = sulfonylurea alone, 10 gram ai/ha
[5] = Chenopodium, post-emergence, 672 h, sulfonylurea alone, 10 gram ai/ha, four weeks after the treatment, read-out: Injury of Chenopodium % Experimental value
[6] = post-emergence, 672 h, sulfonylurea alone, 10 gram ai/ha, four weeks after the treatment, read-out: Injury of Beckmannia % Experimental value
[7] = sulfonylurea alone, 10 gram ai/ha, four weeks after the treatment

Molecule	pest or weed control at 5 g/ha (Datura; [1]) [%]	pest or weed control at 1 g/ha (Setaria; [2]) [%]	pest or weed control at 0.1 g/ha (Galium; [3]) [%]	pest or weed control at 10 g/ha (Alopecurus; [4]) [%]	pest or weed control at 10 g/ha (Stellaria; sulfonylurea alone) [%]	pest or weed control at 10 g/ha (Chenopodium; [5]) [%]	pest or weed control at 10 g/ha (Beckmannia; [6]) [%]	other results
COC(=O)c1ccccc1CS(=O)(=O)NC(=O)Nc1nc(OC)cc(OC)n1 [bensulfuron-methyl, methyl 2-[((4,6-dimethoxypyrimidin-2-yl)aminocarbonylamino]sulfonylmethyl)benzoate]	32	0	16	0	64	12.2	0	
COc1cc(OC)nc(NC(=O)NS(=O)(=O)Nc2ccccc2C(=O)C2CC2)n1 [cyclosulfamuron]	26	0	9	0	48	4.1	0	
CCC/C(=N\OCC)C1=C(O)CC(CC(C)SCC)CC1=O (racemic) [sethoxydim, (±)-2-[1-(ethoxyimino)butyl]-5-[2-(ethylthio)propyl]-3-hydroxy-2-cyclo hexen-1-one]								pest or weed control at 0.1 g/ha (Chenopodium; Chenopodium, post-emergence, 672 h, read-out: Injury of Chenopodium % Experimental value): 0%; pest or weed control at 0.2 g/ha (Beckmannia; post-emergence, 672 h, read-out: Injury of Beckmannia % Experimental value): 0%
Cc1ccnc(NC(=O)NS(=O)(=O)c2ccccc2[N+](=O)[O-])n1 [monosulfuron]								Injury of Datura % Experimental value (Datura; [1]): 24%; Injury of Setaria % Experimental value (Setaria; [2]): 0%; Injury of Galium % Experimental value (Galium; [3]): 7%; Injury of Alopecurus % Experimental value (Alopecurus; [4]): 5%; Injury of Stellaria % Experimental value (Stellaria; sulfonylurea alone): 34%; Injury of Chenopodium % Experimental value (Chenopodium; [7]): 23.5%; Injury of Beckmannia % Experimental value (Beckmannia; [7]): 7%
COC(=O)c1ccccc1S(=O)(=O)NC(=O)Nc1nc(C)nc(OC)n1 [metsulfuron-methyl, methyl 2-[(4-methoxy-6-methyl-1,3,5-triazin-2-yl)ureidosulfonyl]benzoate]	27	0	11	82	58	88.4	24.8	
COc1cc(OC)nc(NC(=O)NS(=O)(=O)c2ncccc2C(=O)N(C)C)n1 [nicosulfuron, 2-(4,6-dimethoxypyrimidin-2-ylcarbamoylsulfamoyl)-N,N-dimethylnicotinamide]	11	2	1	5	60	4	50.3	
COc1cc(OC)nc(NC(=O)NS(=O)(=O)N(C)S(C)(=O)=O)n1 [amidosulfuron, 1-(4,6-dimethoxypyrimidin-2-yl)-3-mesyl(methyl)sulfamoylurea]	27	0	5	0	35	35.8	0	
(±)-2-[(E)-3-chloroallyloxyimino]propyl-5-[2-(ethylthio) propyl]-3-hydroxycyclohexen-2-one [clethodim]								Injury of Datura % Experimental value (Datura; clethodim alone, 50 gram ai/ha): 0%; Injury of Setaria % Experimental value (Setaria; clethodim alone, 50 gram ai/ha): 57.4%; Injury of Galium % Experimental value (Galium; clethodim alone, 10 gram ai/ha): 0%; Injury of Alopecurus % Experimental value (Alopecurus; clethodim alone, 1 gram ai/ha): 5%; Injury of Stellaria % Experimental value (Stellaria; clethodim alone): 0%
COc1nc(C)nc(NC(=O)NS(=O)(=O)c2ccccc2OCCCl)n1 [triasulfuron, 1-[2-(2-chloroethoxyl)phenylsulfonyl]-3-(4-methoxy-6-methyl-1,3,5-triazin-2-yl)urea]	28	0	13	0	40	22.5	0	
COC(=O)c1sccc1S(=O)(=O)NC(=O)Nc1nc(C)nc(OC)n1 [thifensulfuron-methyl, 3-(4-methoxy-6-methyl-1,3,5-triazin-2-yl)-1-(2-methoxyformylthiophen-3-yl)-sulfonylurea]	22	0	8	0	57	8.1	0	
COc1nc(C)nc(NC(=O)NS(=O)(=O)c2ccccc2Cl)n1 [chlorsulfuron]	34	0	10	54	55	53.6	36.2	
